# Tested on: human SIgA in faeces
# Type: in vivo
smiles,measurement,setting,value
"CC1=C(/C=C/C(C)=C/C=C/C(C)=C/C=C/C=C(C)/C=C/C=C(C)/C=C/C2=C(C)CCCC2(C)C)C(C)(C)CCC1 [Beta-carotene, beta-carotene]","SIgA faeces, 3 days before exercise",3 days before exercise,88 micrograms per 100 g faeces
same,Recovery in faeces,Reference (before exercise) = 100%,13%
same,"SIgA faeces, day 1 after exercise",day 1 after exercise,8 micrograms per 100 g faeces
same,"SIgA faeces, day 6 after exercise",day 6 after exercise,11 micrograms per 100 g faeces

# Reference: patent US20150335738A1 (priority 2012, published 2015)
